This is an account of results in patent US20120046357A1, “Benzamide and Napthamide Derivatives Inhibiting Nuclear Factor-Kappa (B) - (NK-kB)” (Profectus Biosciences, Inc., priority 2009, published 2012).

pEC50, pIC50: −log10 of the molar value.

For experiment [1], the system named is NF-κB. As to the kind of experiment: NF-κB/293/GFP reporter cell assay (TNF-α induced GFP expression). In kind it is cell-based. Particulars: Homo sapiens, HEK293, 293 cells, pTRH1-NF-κB-dscGFP reporter, 2 h pretreatment, 20 ng/ml TNF-α 18 h; read-out: NF-KB/293/GFP EC50. How it is done:
(§1) Two reporter cell assays were used to determine the ability of the compound of Example 10 to inhibit NF-κB driven transcription. The first assay was a 293-cell based assay with a stably integrated pNF-κB-luc reporter plasmid containing 3 NF-κB promoter elements. The second assay was a 293-cell based assay with a stably integrated pTRH1-NF-κB-dscGFP reporter containing 4 NF-κB promoter elements. Cells were treated with 0, 0.2, 1, 10, 20 and 40 μM of the compound of Example 10 for 2 hours then were induced with 20 ng/ml TNF-α for 18 hours. Following the induction, luminescence or fluorescence was quantified using a Beckman-Coulter 2300 plate reader. […] These values represent the median value generated from three independent experiments. As a control, 0.5% DMSO treated and untreated cells were compared to verify that the compound of Example 10 had no effect on the expression of luciferase or in the readout of the assay. There was a slight decrease in the output from the assay in the DMSO treated population although it was not statistically significant. As a result of the controls, the decrease in activity in the drug treated samples was compared to the DMSO control sample.

Experiment [2] relates to IL-6 release from RAW264.7 cells. Description: LPS-stimulated IL-6 release from RAW264.7 cells (ELISA). The class given is cell-based, mouse. Particulars: Mus musculus, RAW264.7, RAW264.7 cells, 2 h pretreatment, 1 μg/mL LPS 20-24 h; read-out: RAW 264.7 IL-6 release EC50. On the procedure:
RAW 264.7 cells were seeded at 4×10^4 cells per well n complete growth medium in 96 well white TC plates with clear bottoms one day prior to the assay. The next day the cells were washed once and 100 μL fresh growth media was added. Cells were pretreated with 0.5 μL from a 6 point 200× dilution series of the test compounds in DMSO for 2 hours. Following pretreatment with the drugs, the inflammatory response was induced by adding 5 μL of a 20 μg/mL solution of LPS (Sigma). The cells were incubated in the presence of the drugs and 1 μg/mL LPS for another 20-24 hours. Typically after treatment the total DMSO was […] of the culture volume and the final concentrations of the compounds were approximately: 40, 20, 10, 1, 0.2 and 0 μM depending on the MW of each compound. Modified dilution series were prepared as needed to get adequate dose response curves without changing the % DMSO. Samples were run in duplicate or triplicate and included DMSO treated control wells with and without LPS stimulation. Drugs with a known activity such as Parthenolide or DHMEQ were run as experimental controls. After 20-24 hours LPS activation, the media supernatant was collected from the cells and replaced with fresh media. The supernatant samples were cleared by centrifugation at 1,000×g for 5 minutes, transferred to fresh storage plates, and stored frozen at −30° C.
After determining the appropriate supernatant dilutions experimentally, mIL-6 levels in the supernatants were quantified using Quantikine™ mouse IL-6 immunoassay (R&D Systems) according to the manufacturer's protocol. […] diluted in Calibrator Diluent were added to 50 μL of Assay Diluent in microplate wells pre-coated with an anti-mouse IL-6 capture antibody. Controls included a calibrated positive IL-6 control sample, non-specific binding (NSB) wells containing Calibrator Diluent but no IL-6, and a recombinant mouse IL-6 standard dilution series (10-1000 pg/mL). The plates were incubated at room temperature for 2 hours with shaking and then washed 5 times with 400 μL 1× Wash Buffer. […] anti-mouse IL-6 antibody was added to each well to detect IL-6 captured on the plate. The plates were incubated at room temperature for 2 hours and then washed 5 times with 400 μL 1× Wash Buffer. Equal volumes of Color Reagents A and B were mixed and 100 μL of this HRP Substrate Solution was added to each well on the plate. The blue color was allowed to develop for 30 minutes and then the reaction was stopped using 100 μL of Stop Solution yielding a yellow color. Absorbance at 450 nm with a reference wavelength subtracted at 595 nm was recorded using a Becton-Dickinson DTX 880 Multimode Detector.
The concentration of mIL-6 in the unknown samples was determined from a curve-fit of the mIL-6 standard absorbance data and multiplying by the dilution factor. The maximum activity achieved in the absence of the inhibitor (DMSO+LPS treated wells) was arbitrarily given a value of 100%; likewise the minimum activity in the absence of the stimulant (no LPS) was assigned a value of 0%. Inhibition of the amount of mIL-6 cytokine released in the drug treated wells was calculated relative to the maximum activation in the DMSO+LPS treated control wells (ie. % inhibition=100−(drug+LPS treated)/(DMSO+LPS treated)). Dose response curves were used to determine the effective concentration to inhibit 50% of the mIL-6 cytokine released (IC50) by means of a SigmaPlot macro which fits a sigmoidal dose-response curve to the (log 10) μM concentration versus % inhibition. […] This technique yields an objective value for the IC50 provided that 50% inhibition was approached at the concentrations tested. FIG. 5 illustrates the effect of the compound of Example 10 on inhibiting IL-6 release.
For orientation: In an ELISA, binding on a coated surface is turned into a signal by an enzyme label.

Another experiment addresses T1, p65 (RelA) (Homo sapiens, UniProt Q04206).
T1 construct: purchased Active Motif
As to the kind of experiment: TransAM NF-κB family DNA binding ELISA, p65. The class given is biochemical. Particulars: binding to NF-κB consensus oligonucleotide. On the procedure: The binding activity of NF-κB heterodimer or homodimer subunits from activated nuclear extracts or purified recombinant NF-κB proteins exposed to the drug compounds was evaluated using the TransAM NF-κB Family binding ELISA (Active Motif). 3-5 μg of nuclear extracts from TNFα activated Hela or Raji cells (Active Motif) or 20 ng of purified recombinant proteins (p65 and p50 from Active Motif, p52 from Santa Cruz) were incubated for 1 hour at room temperature with 20 μL drug compounds diluted in Complete Lysis buffer without DTT. Treated samples were then transferred to 30 μL Complete Binding Buffer (with DTT) in microplate wells pre-coated with the NF-κB consensus oligonucleotide. […] The plate was incubated for 1 hour at room temperature with gentle shaking and then washed 3 times with 200 μL 1× Wash Buffer. NF-κB p65, p50, p52, RelB, or c-Rel subunits bound to the plate were detected with 100 μL of the primary antibody (diluted 1:1000 in 1× Antibody Buffer) specific for that subunit. The plate was incubated for 1 hour at room temperature and then washed 3 times with 200 μL 1× Wash Buffer. Next, 100 μL of a HRP conjugated goat anti-rabbit antibody (diluted 1:1,000 in 1× Antibody Buffer) was added to each well. The plate was incubated for 1 hour at room temperature and then washed 4 times with 200 μL 1× Wash Buffer. 100 μL of room temperature Developing Solution was added to each well. The reaction was allowed to develop for 2-10 minutes until a medium dark blue color developed (depending on the subunit activity in the lot of extract or lot of recombinant protein used) and then the reaction was stopped with 100 μL Stop Solution yielding a yellow color. Absorbance was recorded using a Becton-Dickinson DTX 880 Multimode Detector at 450 nm with a reference wavelength subtracted at 620 nm. FIGS. 2, 3 and 4 illustrate the effect of Example 10 on inhibiting RelA, RelB and c-Rel binding to NF-κB sites.

The subject of experiment [3] is NF-κB. Description: 293/NFkB-luc reporter cell assay (TNF-α induced luciferase expression). The class given is cell-based. Particulars: 293/NFkB-luc, 293 cells, pNF-κB-luc reporter, 2 h pretreatment, 20 ng/ml TNF-α 18 h. How it is done: as §1

T1 sequence (Q04206 whole entry): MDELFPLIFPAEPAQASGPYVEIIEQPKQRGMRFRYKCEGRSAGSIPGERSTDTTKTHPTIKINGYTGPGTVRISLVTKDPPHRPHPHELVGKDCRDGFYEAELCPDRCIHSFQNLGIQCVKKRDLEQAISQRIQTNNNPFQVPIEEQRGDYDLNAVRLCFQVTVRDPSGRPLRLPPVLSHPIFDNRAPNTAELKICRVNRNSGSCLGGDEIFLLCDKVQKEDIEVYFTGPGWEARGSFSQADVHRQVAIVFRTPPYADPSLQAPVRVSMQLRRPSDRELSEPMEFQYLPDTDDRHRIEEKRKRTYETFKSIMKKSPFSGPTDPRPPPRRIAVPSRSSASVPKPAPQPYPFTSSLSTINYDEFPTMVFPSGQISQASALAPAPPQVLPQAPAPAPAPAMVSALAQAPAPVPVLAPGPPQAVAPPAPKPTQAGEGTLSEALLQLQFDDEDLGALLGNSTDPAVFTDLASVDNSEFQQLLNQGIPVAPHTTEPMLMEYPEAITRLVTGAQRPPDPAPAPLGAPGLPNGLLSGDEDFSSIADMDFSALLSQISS

A word on the pIC50: it is the IC50 on a negative log10 scale, so that one unit is a factor of ten. Low values mean a large IC50, high ones a small IC50. For the compound `CN(C)c1ccc(C(=O)NC2=CC(=O)C3OC3C2=O)c(O)c1` (racemic) [Example 18, (±)-4-(dimethylamino)-N-(2,5-dioxo-7-oxabicyclo[4.1.0]hept-3-en-3-yl)-2-hydroxybenzamide], the values for the pEC50 (in the experiment with NF-κB [1]; in experiment [2]; in the experiment on NF-κB [3]) were 5.51, 6.24 and 5.68, respectively. Moreover, the pIC50 at p65 (RelA) was 4.59.
Regarding `Cc1cc(Br)cc(C(=O)NC2=CC(=O)C3OC3C2=O)c1O` (racemic) [Example 14, (±)-5-bromo-N-(2,5-dioxo-7-oxabicyclo[4.1.0]hept-3-en-3-yl)-2-hydroxy-3-methylbenzamide], the pEC50 with NF-κB [1] was 5.44; in experiment [2] it was 6.60; in the experiment with NF-κB [3], 5.54. Moreover, on p65 (RelA), the pIC50 is 5.28.
For `O=C(NC1=CC(=O)C2OC2C1=O)c1c(O)ccc2ccccc12` (racemic) [Example 12, (±)-N-(2,5-dioxo-7-oxabicyclo[4.1.0]hept-3-en-3-yl)-2-hydroxy-1-naphthamide], the figures for the pEC50 (in the experiment with NF-κB [1]; in experiment [2]; in the experiment with NF-κB [3]) were 5.44, 6.85 and 5.66, respectively. Further, the pIC50 on p65 (RelA) was 5.01.
As to `Cc1cc(Br)cc(C(=O)NC2=CC(=O)C3OC3C2O)c1O` (racemic) [Example 13, (±)-5-bromo-2-hydroxy-N-(2-hydroxy-5-oxo-7-oxabicyclo[4.1.0]hept-3-en-3-yl)-3-methylbenzamide], the pEC50 is 5.04 in the experiment on NF-κB [1], 5.77 in experiment [2] and 4.68 with NF-κB [3]. On p65 (RelA), this compound gave a pIC50 of 5.06.
